The values below come from patent US11957680B2, “Pyruvate kinase activators for use in treating blood disorders” (Agios Pharmaceuticals, Inc., priority 2017, dated 2024).

In test [1] the target is T1, wild type PKR (Homo sapiens, UniProt P30613). The test can be described thus: PKR (wild type) enzyme AC50 assay, LDH/NADH-coupled, absorbance at 340 nm. The class given is biochemical. Conditions: for AC50: Table 2, enzyme assay, read-out: PKR WT AC50; for EC50: Table 4, AC50, enzyme assay, read-out: PKR WT. The protocol:
(§1) Example 11. PKR Mutant Assay
(§2) PKR or PKR mutant enzyme solution was diluted into a reaction mix, which contains 1× buffer (100 mM KCl, 50 mM Tris pH 7.5, 5 mM MgCl2) as well as PEP (conc depends on enzyme), 180 μM NADH, 0.5 units LDH, 1 mM DTT, 0.03% BSA; final assay concentrations after 1.11 fold dilution are indicated.
(§3) 2 μL of test compound was added into wells first, and then 180 μL reaction mix was added.
(§4) Reactions mixture with test compound was assembled except for ADP, and plates were stored for 60 minutes at room temperature.
(§5) 20 uL ADP was added to start reaction at room temperature and reaction progress was measured as changes in absorbance at 340 nm wavelength at room temperature.
(§6) Test Compound Preparation:
(§7) Test compound stock was made at 100× concentration in 100% DMSO (10 mM)
(§8) 1 to 3 dilutions were made for 11 points (i.e. 50 μl of first concentration added to 100 μl 100% DMSO to yield 3.33 mM, 50 μl of this added to 100 μl DMSO to yield 1.11 mM, and so forth) • 1 to 100 dilution into assay (2 μl in 200 μl) yielded starting concentration of 100 μM, decreasing 3 fold for 11 points.
(§9) Assay Buffer: 100 mM KCl, 50 mM Tris 7.5, 5 mM MgCl2, 1 mM DTT, 0.03% BSA
(§10) Reaction Mixture: PKR mutant enzyme: 40-400 ng/well; ADP: 0.2-1.65 mM; PEP: 0.1-0.5 mM; NADH: 180 μM; LDH: 0.5 units (Sigma #59023); DTT: 1 mM; BSA: 0.03%.

For the next test, the target named is PKR K410E (Homo sapiens, UniProt P30613, K410E). Briefly: PKR mutant assay (K410E), AC50, LDH/NADH-coupled, absorbance at 340 nm. The class given is biochemical. The note with it: for AC50: Table 2, enzyme assay; for EC50: Table 4, AC50, enzyme assay. As to the method:
as §1, §2, §3, §4, §5, §6, §7, §8, §9, §10

A further test has as its target PKR R510Q (Homo sapiens, UniProt P30613, R510Q). The test can be described thus: PKR mutant assay (R510Q), AC50, LDH/NADH-coupled, absorbance at 340 nm. The class given is biochemical. The note with it: for AC50: read-out: PK R510Q AC50; for EC50: Table 4, AC50, enzyme assay, read-out: PK R510Q. As to the method: as §1, §2, §3, §4, §5, §6, §7, §8, §9, §10
In test [2] the target is T1, wild type PKR. The test can be described thus: Cell based ATP assay in purified red blood cells (Cell-Titer-Glo). On the set-up: endogenous in cells; host or cells: purified red blood cells from healthy volunteers. The note with it: overnight at 37° C., ATP levels; for EC50: Table 4, AC50, RBCs. As to the method: Example 16. Red Blood Cell (RBC) Purification
Fresh blood drawn from healthy volunteers into K2EDTA tubes was collected. Whole blood was pelleted by spinning at 500 g for 10 minutes. Cut transfusion bag port off of Purecell leukocyte reduction neofilter (Fisher NC0267633) one (1) inch above filter. Attach a 10 ml syringe barrel to the remaining cut tubing attached to neofilter. The plasma layer was removed from the pellet of the whole blood and the pellet was resuspended in 2× volume of phosphate buffered saline (PBS). Transfer 9 ml re-suspended blood cell pellet to prepared 10 ml syringe that is attached to the neofilter. Allow whole blood to gravity flow through filter until all fluid runs through upper tubing into filter disc. Add plunger to the syringe, remove syringe from clamp and invert the filter, then plunge air through the syringe filter system. Using a new 5 ml syringe, remove filtered RBCs from the bag by the syringe port and transfer purified RBCs to a 5 ml snap cap tube that has been incubated on ice. Spin 5 ml snap cap tube at 500 g for 10 minutes at 15 C, aspirate supernatant and resuspend in AGAM (1×PBS, 1% glucose, 170 mg/L adenine, 5.25 g/L mannitol) at a density of 4×10^9 cells/mL.
Example 17. Cell Based ATP Assay
For cell based ATP assays, the compound as described herein was prepared in 100% DMSO as a 10 mM stock. Serial dilutions (1:4) were performed in 96-well V-bottom storage plate and then added 1:100 to 96-well V-bottom plates containing AGAM. RBCs were diluted in AGAM media to a density of 1×10^7 cells/mL before added 90 μL/well to black clear bottom assay plates (final compound concentration at 0.1% DMSO concentration). Assay plates were sealed using aluminum foil seals and incubated overnight at 37° C. in a humidified chamber. ATP levels were read out using Cell-Titer-Glo (Promega).

Structures are written as SMILES.

T1 sequence (P30613 whole entry): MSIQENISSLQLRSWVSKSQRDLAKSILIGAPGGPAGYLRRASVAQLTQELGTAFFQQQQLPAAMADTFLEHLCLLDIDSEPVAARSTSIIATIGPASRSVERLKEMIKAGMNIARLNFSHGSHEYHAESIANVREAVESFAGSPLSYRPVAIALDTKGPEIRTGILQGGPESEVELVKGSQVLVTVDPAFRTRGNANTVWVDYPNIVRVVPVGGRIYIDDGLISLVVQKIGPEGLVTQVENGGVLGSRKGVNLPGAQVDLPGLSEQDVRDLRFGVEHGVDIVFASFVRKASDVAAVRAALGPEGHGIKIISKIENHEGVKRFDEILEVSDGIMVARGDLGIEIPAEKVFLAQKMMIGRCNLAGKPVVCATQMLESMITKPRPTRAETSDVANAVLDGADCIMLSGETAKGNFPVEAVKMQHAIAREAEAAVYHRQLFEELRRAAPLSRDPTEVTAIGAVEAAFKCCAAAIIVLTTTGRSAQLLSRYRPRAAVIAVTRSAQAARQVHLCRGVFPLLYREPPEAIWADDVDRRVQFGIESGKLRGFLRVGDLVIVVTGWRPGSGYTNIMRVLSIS
Sequence of PKR K410E (P30613 whole entry K410E): as the sequence (P30613 whole entry) above, with K410E counted along it
Sequence of PKR R510Q (P30613 whole entry R510Q): as the sequence (P30613 whole entry) above, with R510Q counted along it

As to `Cn1c2nc(Cc3ccncc3)sc2c2cnn(Cc3cccc4[nH]ncc34)c(=O)c21` [Compound 161], the AC50 (commonly the midpoint of the concentration-response curve, whichever way the signal moves) on wild type PKR [1] is over 800 nM; at PKR K410E, over 800 nM; at PKR R510Q (Table 2, enzyme assay), over 800 nM; at wild type PKR [2] (Table 2, RBCs), over 1000 nM.
Consider `Cn1cc(Cc2nc3c(s2)c2cnn(Cc4cccc(C(N)=O)c4)c(=O)c2n3C)cn1` [Compound 389], for which the EC50 on wild type PKR [1] is over 800 nM; on PKR K410E, over 800 nM; at PKR R510Q, 301 to 800 nM; on wild type PKR [2], over 1000 nM.
`CNCc1nc2c(s1)c1cnn(Cc3cccc4[nH]ncc34)c(=O)c1n2C` [Compound 125]: the half-maximal activity concentration (AC50) on wild type PKR [1] was over 800 nM; on PKR K410E it was over 800 nM; at PKR R510Q (Table 2, enzyme assay) it was 301 to 800 nM; at wild type PKR [2] (Table 2, RBCs), over 1000 nM.
As to `CSc1nc2c(s1)c1cnn(Cc3ccnc(=O)[nH]3)c(=O)c1n2C` [Compound 96], the AC50 on wild type PKR [1] and at PKR K410E was over 800 nM in each case. Besides, on PKR R510Q (Table 2, enzyme assay), the “PK R510Q AC50” value is “No Fit”. Further, the “Cell based ATP assay AC50” value on wild type PKR [2] (Table 2, RBCs) is “No Fit”.
Take `Cn1c2nc(Cc3cc[nH]n3)sc2c2cnn(Cc3cccc4[nH]ccc34)c(=O)c21` [Compound 246]: the EC50 on wild type PKR [1] is under 300 nM; at PKR K410E, under 300 nM; at PKR R510Q it was under 300 nM; at wild type PKR [2] it was at most 1000 nM.
Regarding `Cn1c2nc(C(N)=O)sc2c2cnn(Cc3cccc4[nH]ncc34)c(=O)c21` [Compound 82], the AC50 at wild type PKR [1] was under 300 nM; on PKR K410E, 301 to 800 nM; at PKR R510Q (Table 2, enzyme assay) it was 301 to 800 nM; on wild type PKR [2] (Table 2, RBCs), over 1000 nM.
Turning to `CC(O)c1cccc(Cn2ncc3c4sc([S+](C)[O-])nc4n(C)c3c2=O)c1` (centres unmarked) [Compound 88], the AC50 at wild type PKR [1] was under 300 nM; at PKR K410E, 301 to 800 nM; at PKR R510Q (Table 2, enzyme assay) it was 301 to 800 nM; on wild type PKR [2] (Table 2, RBCs), at most 1000 nM.
As for `Cn1c2nc(Cc3cncs3)sc2c2cnn(Cc3cccc4[nH]ncc34)c(=O)c21` [Compound 211], the EC50 at wild type PKR [1] was under 300 nM; on PKR K410E, under 300 nM; on PKR R510Q, under 300 nM; on wild type PKR [2] it was at most 1000 nM.
As for `Cc1nc2c(s1)c1cnn(Cc3ccc(CO)cc3)c(=O)c1n2C` [Compound 44], the AC50 was over 800 nM on wild type PKR [1]; over 800 nM on PKR K410E; over 800 nM on PKR R510Q (Table 2, enzyme assay); over 1000 nM at wild type PKR [2] (Table 2, RBCs).
In the case of `Cn1c2nc(Cc3n[nH]cc3C(F)(F)F)sc2c2cnn(Cc3cccc4[nH]ncc34)c(=O)c21` [Compound 172], the AC50 on wild type PKR [1] was over 800 nM; on PKR K410E it was over 800 nM; on PKR R510Q (Table 2, enzyme assay), over 800 nM; at wild type PKR [2] (Table 2, RBCs) it was over 1000 nM.
In the case of `Cn1c2nc(Cc3cc[nH]n3)sc2c2cnn(Cc3cccc4[nH]cnc34)c(=O)c21` [Compound 278], the EC50 was under 300 nM on wild type PKR [1], under 300 nM on PKR K410E, under 300 nM at PKR R510Q and at most 1000 nM on wild type PKR [2].
For the compound `Cn1c2nc(Cc3cc[nH]n3)sc2c2cnn(Cc3ccc4cc(Cl)[nH]c4n3)c(=O)c21` [Compound 388], the EC50 was under 300 nM on wild type PKR [1], under 300 nM on PKR K410E, under 300 nM at PKR R510Q and at most 1000 nM on wild type PKR [2].
`Cc1nc2c(s1)c1cnn(CCCO)c(=O)c1n2C` [Compound 46]: the AC50 on wild type PKR [1] was over 800 nM; on PKR K410E, over 800 nM; on PKR R510Q (Table 2, enzyme assay), over 800 nM; at wild type PKR [2] (Table 2, RBCs), over 1000 nM.
Regarding `Cn1c2nc(Cc3cc[nH]n3)sc2c2cnn(Cc3n[nH]c4ncccc34)c(=O)c21` [Compound 374], the EC50 was under 300 nM at wild type PKR [1], under 300 nM on PKR K410E, under 300 nM on PKR R510Q and at most 1000 nM on wild type PKR [2].
